Reference: ChEMBL document CHEMBL4417635, “2-hydroxyarylamide derivative or pharmaceutically acceptable salt thereof, preparation method thereof, and pharmaceutical composition for preventing or treating cancer containing same as active ingredient” (2013)

Target: Transmembrane protease serine 4 (Homo sapiens) (UniProt Q9NRS4)
Experiment: (§1) Inhibition of TMPRSS4 serine protease domain (Val 205 to Leu 437 residues) (unknown origin) expressed in Escherichia coli BL21 (DE3) at 100 uM using […]-Gln-Ala-Arg-7-amido-4-methylcoumarin hydrochloride substrate and measured for 5 mins at 5 mins intervals by fluorescence based assay relative to control

Sequence of Transmembrane protease serine 4 (Homo sapiens) (Q9NRS4 whole entry, the tested form may be a part): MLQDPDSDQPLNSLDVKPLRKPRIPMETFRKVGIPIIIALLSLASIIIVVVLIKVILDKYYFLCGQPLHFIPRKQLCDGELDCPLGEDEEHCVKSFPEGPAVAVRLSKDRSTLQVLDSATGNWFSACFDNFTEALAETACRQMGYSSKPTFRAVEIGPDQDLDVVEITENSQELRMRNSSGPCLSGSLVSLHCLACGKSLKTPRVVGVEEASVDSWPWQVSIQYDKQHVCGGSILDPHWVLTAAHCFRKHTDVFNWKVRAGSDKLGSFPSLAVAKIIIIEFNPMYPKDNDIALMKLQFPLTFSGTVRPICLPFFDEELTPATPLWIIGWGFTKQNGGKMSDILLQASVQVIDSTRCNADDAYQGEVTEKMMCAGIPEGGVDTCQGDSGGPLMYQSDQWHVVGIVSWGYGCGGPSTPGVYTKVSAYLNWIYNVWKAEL

| SMILES | inhibition |
| --- | --- |
| O=C(Nc1cnc2ccccc2c1)c1cc(Cl)ccc1O | 75% |
| N#Cc1ccc(NC(=O)c2cc(Cl)ccc2O)cc1C(F)(F)F | 100% |
| O=C(Nc1ccc(Cl)c(C(F)(F)F)c1)c1cc(Cl)ccc1O | 99% |
| O=C(Nc1nc(-c2ccccc2)cs1)c1cc(Cl)ccc1O | 98% |
| COc1cc(NC(=O)c2cc(Cl)ccc2O)cc(C(F)(F)F)c1 | 99% |
| N#Cc1ccc(NC(=O)c2cc(Cl)ccc2O)c(Cl)c1 | 100% |
| O=C(Nc1nnc(C(F)(F)F)s1)c1cc(Cl)ccc1O | 100% |
| O=C(Nc1cc(C(F)(F)F)cc(C(F)(F)F)c1)c1cc(Cl)ccc1O | 100% |

Target: Transmembrane protease serine 4 (Homo sapiens) (UniProt Q9NRS4)
Experiment: as §1, with “30” for “100”

| SMILES | inhibition |
| --- | --- |
| O=C(Nc1cnc2ccccc2c1)c1cc(Cl)ccc1O | 8% |
| N#Cc1ccc(NC(=O)c2cc(Cl)ccc2O)cc1C(F)(F)F | 88% |
| O=C(Nc1ccc(Cl)c(C(F)(F)F)c1)c1cc(Cl)ccc1O | 95% |
| O=C(Nc1nc(-c2ccccc2)cs1)c1cc(Cl)ccc1O | 91% |
| COc1cc(NC(=O)c2cc(Cl)ccc2O)cc(C(F)(F)F)c1 | 88% |
| N#Cc1ccc(NC(=O)c2cc(Cl)ccc2O)c(Cl)c1 | 92% |
| N#Cc1ccc(NC(=O)c2cc(Cl)ccc2O)nc1 | 63% |
| O=C(Nc1nnc(C(F)(F)F)s1)c1cc(Cl)ccc1O | 75% |
| O=C(Nc1cc(C(F)(F)F)cc(C(F)(F)F)c1)c1cc(Cl)ccc1O | 96% |

Target: Transmembrane protease serine 4 (Homo sapiens) (UniProt Q9NRS4)
Experiment: as §1, with “10” for “100”

| SMILES | inhibition |
| --- | --- |
| O=C(Nc1ccc(Cl)c(C(F)(F)F)c1)c1cc(Cl)ccc1O | 71% |
| COc1cc(NC(=O)c2cc(Cl)ccc2O)cc(C(F)(F)F)c1 | 67% |
| N#Cc1ccc(NC(=O)c2cc(Cl)ccc2O)nc1 | 26% |
| O=C(Nc1cc(C(F)(F)F)cc(C(F)(F)F)c1)c1cc(Cl)ccc1O | 64% |

Target: Transmembrane protease serine 4 (Homo sapiens) (UniProt Q9NRS4)
Experiment: Inhibition of TMPRSS4 serine protease domain (Val 205 to Leu 437 residues) (unknown origin) expressed in Escherichia coli BL21 (DE3) using […]-Gln-Ala-Arg-7-amido-4-methylcoumarin hydrochloride substrate and measured for 5 mins at 5 mins intervals by fluorescence based assay relative to control

| SMILES | inhibition |
| --- | --- |
| O=C(Nc1cnc2ccccc2c1)c1cc(Cl)ccc1O | Dose-dependent effect |
| N#Cc1ccc(NC(=O)c2cc(Cl)ccc2O)cc1C(F)(F)F | Dose-dependent effect |
| O=C(Nc1ccc(Cl)c(C(F)(F)F)c1)c1cc(Cl)ccc1O | Dose-dependent effect |
| O=C(Nc1nc(-c2ccccc2)cs1)c1cc(Cl)ccc1O | Dose-dependent effect |
| COc1cc(NC(=O)c2cc(Cl)ccc2O)cc(C(F)(F)F)c1 | Dose-dependent effect |
| N#Cc1ccc(NC(=O)c2cc(Cl)ccc2O)c(Cl)c1 | Dose-dependent effect |
| N#Cc1ccc(NC(=O)c2cc(Cl)ccc2O)nc1 | Dose-dependent effect |
| O=C(Nc1nnc(C(F)(F)F)s1)c1cc(Cl)ccc1O | Dose-dependent effect |
| O=C(Nc1cc(C(F)(F)F)cc(C(F)(F)F)c1)c1cc(Cl)ccc1O | Dose-dependent effect |

Target: Transmembrane protease serine 4 (Homo sapiens) (UniProt Q9NRS4)
Experiment: Inhibition of TMPRSS4 (unknown origin) expressed in human SW480 cells assessed as reduction in cell migration at 0.8 uM incubated for 48 hrs by crystal violet staining based assay relative to control

| SMILES | inhibition |
| --- | --- |
| O=C(Nc1ccc(Cl)c(C(F)(F)F)c1)c1cc(Cl)ccc1O | 68% |
| COc1cc(NC(=O)c2cc(Cl)ccc2O)cc(C(F)(F)F)c1 | 49% |
| O=C(Nc1cc(C(F)(F)F)cc(C(F)(F)F)c1)c1cc(Cl)ccc1O | 76% |

Target: Transmembrane protease serine 4 (Homo sapiens) (UniProt Q9NRS4)
Experiment: Inhibition of TMPRSS4 (unknown origin) expressed in human SW480 cells assessed as reduction in cell migration at 2 uM incubated for 48 hrs by crystal violet staining based assay relative to control

| SMILES | inhibition |
| --- | --- |
| N#Cc1ccc(NC(=O)c2cc(Cl)ccc2O)cc1C(F)(F)F | 81% |
| O=C(Nc1nc(-c2ccccc2)cs1)c1cc(Cl)ccc1O | 75% |
| N#Cc1ccc(NC(=O)c2cc(Cl)ccc2O)c(Cl)c1 | 54% |

Target: Transmembrane protease serine 4 (Homo sapiens) (UniProt Q9NRS4)
Experiment: Inhibition of TMPRSS4 (unknown origin) expressed in human SW480 cells assessed as reduction in cell migration at 25 uM incubated for 48 hrs by crystal violet staining based assay relative to control

| SMILES | inhibition |
| --- | --- |
| O=C(Nc1cnc2ccccc2c1)c1cc(Cl)ccc1O | 51% |

Target: Transmembrane protease serine 4 (Homo sapiens) (UniProt Q9NRS4)
Experiment: Inhibition of TMPRSS4 (unknown origin) expressed in human SW480 cells assessed as reduction in cell migration at 5 uM incubated for 48 hrs by crystal violet staining based assay relative to control

| SMILES | inhibition |
| --- | --- |
| N#Cc1ccc(NC(=O)c2cc(Cl)ccc2O)nc1 | 44% |
| O=C(Nc1nnc(C(F)(F)F)s1)c1cc(Cl)ccc1O | 29% |
